Source: patent US12404241B2 (Celgene Corporation, priority 2018, dated 2025)
Counter-ions that a name gives are not always drawn.

Biological target: T1, AR (Homo sapiens, UniProt P10275)
T1 construct: endogenous in cells; host or cells: VCaP cells
T1 sequence (P10275 1-920): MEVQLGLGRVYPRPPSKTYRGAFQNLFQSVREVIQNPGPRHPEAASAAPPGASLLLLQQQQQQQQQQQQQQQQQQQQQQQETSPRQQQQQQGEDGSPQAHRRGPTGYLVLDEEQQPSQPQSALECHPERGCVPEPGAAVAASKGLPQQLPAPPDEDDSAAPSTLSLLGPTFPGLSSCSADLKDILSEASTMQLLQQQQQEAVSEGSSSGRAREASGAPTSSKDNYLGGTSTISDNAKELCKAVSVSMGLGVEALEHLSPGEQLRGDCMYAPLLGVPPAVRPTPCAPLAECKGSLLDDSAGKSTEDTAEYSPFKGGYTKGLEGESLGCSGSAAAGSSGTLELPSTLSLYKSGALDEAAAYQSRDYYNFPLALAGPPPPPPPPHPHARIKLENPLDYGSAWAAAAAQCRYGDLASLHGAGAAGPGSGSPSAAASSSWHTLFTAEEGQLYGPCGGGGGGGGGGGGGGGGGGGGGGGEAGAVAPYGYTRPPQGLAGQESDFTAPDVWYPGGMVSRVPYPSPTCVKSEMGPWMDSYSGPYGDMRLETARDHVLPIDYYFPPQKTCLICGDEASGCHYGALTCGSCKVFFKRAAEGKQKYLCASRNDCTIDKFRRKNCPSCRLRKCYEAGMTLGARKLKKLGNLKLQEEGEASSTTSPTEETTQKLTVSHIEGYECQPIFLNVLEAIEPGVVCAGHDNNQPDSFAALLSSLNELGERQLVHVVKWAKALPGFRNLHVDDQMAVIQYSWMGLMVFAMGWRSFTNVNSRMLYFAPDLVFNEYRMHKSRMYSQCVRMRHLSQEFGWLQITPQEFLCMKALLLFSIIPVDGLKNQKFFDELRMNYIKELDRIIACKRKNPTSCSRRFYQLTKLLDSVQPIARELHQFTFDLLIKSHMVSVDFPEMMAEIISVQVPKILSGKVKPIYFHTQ
Test: VCAP AR Degradation Assay
Type: cell-based
Details: for Y (AR degradation efficiency, % of DMSO control): class symbols *; for DC50: class symbols A-C, read-out: DC50
How it was run: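 VCaP cells treated 24 h at 37 °C with a 10-point 1:3 series (top 5 μM final; 0.1% DMSO control). Lysate AR measured by sandwich ELISA, normalized to DMSO as percent of control; DC50, EC50 and lowest AR level (Y) from four-parameter logistic fit.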

Structure (SMILES) | Y (AR degradation efficiency, % of DMSO control) | DC50 [nM]
C[C@@H]1CN(CCOc2ccc(N3C(=S)N(c4ccc(C#N)c(C(F)(F)F)c4)C(=O)C3(C)C)cc2CC(F)F)CCN1CC(=O)Nc1cc(Cl)cc(NC2CCC(=O)NC2=O)c1 (stereo partly drawn) [Example 152, N-(3-chloro-5-(2,6-dioxopiperidin-3-ylamino)phenyl)-2-((R)-4-(2-(4-(3-(4-cyano-3-(trifluoromethyl)phenyl)-5,5-dimethyl-4-oxo-2-thioxoimidazolidin-1-yl)-2-(2,2-difluoroethyl)phenoxy)ethyl)-2-methylpiperazin-1-yl)acetamide] | * (0<Y<=25%) | < 100
C[C@@H]1CN(CC(=O)Nc2cccc(NC3CCC(=O)NC3=O)c2)[C@H](C)CN1CCOc1ccc(N2C(=S)N(c3ccc(C#N)c(Cl)c3)C(=O)C2(C)C)cc1C1CC1 (stereo partly drawn) [Example 205, 2-((2R,5R)-4-(2-(4-(3-(3-chloro-4-cyanophenyl)-5,5-dimethyl-4-oxo-2-thioxoimidazolidin-1-yl)-2-cyclopropylphenoxy)ethyl)-2,5-dimethylpiperazin-1-yl)-N-(3-(2,6-dioxopiperidin-3-ylamino)phenyl)acetamide] | * (0<Y<=25%) | < 100
CC(C)c1cc(N2C(=S)N(c3ccc(C#N)c(C(F)(F)F)c3)C(=O)C2(C)C)ccc1OCCN1CCN(CC(=O)Nc2cccc(NC3CCC(=O)NC3=O)c2)[C@H](C(F)(F)F)C1 (stereo partly drawn) [Example 257, 2-((S)-4-(2-(4-(3-(4-cyano-3-(trifluoromethyl)phenyl)-5,5-dimethyl-4-oxo-2-thioxoimidazolidin-1-yl)-2-isopropylphenoxy)ethyl)-2-(trifluoromethyl)piperazin-1-yl)-N-(3-(2,6-dioxopiperidin-3-ylamino)phenyl)acetamide] | *** (35%<Y<50%) | 500 to 1000
CCc1cc(N2C(=S)N(c3ccc(C#N)c(C(F)(F)F)c3)C(=O)C2(C)C)ccc1OCCN1CCN(CC(=O)Nc2cc(F)cc(NC3CCC(=O)NC3=O)c2)[C@H](C)C1 (stereo partly drawn) [Example 90, 2-((R)-4-(2-(4-(3-(4-cyano-3-(trifluoromethyl)phenyl)-5,5-dimethyl-4-oxo-2-thioxoimidazolidin-1-yl)-2-ethylphenoxy)ethyl)-2-methylpiperazin-1-yl)-N-(3-(2,6-dioxopiperidin-3-ylamino)-5-fluorophenyl)acetamide] | * (0<Y<=25%) | < 100
C[C@@H]1CN(CCOc2ccc(N3C(=S)N(c4ccc(C#N)c(C(F)(F)F)c4)C(=O)C3(C)C)cc2C2CC2)C[C@H](C)N1CC(=O)Nc1cccc(N[C@@H]2CCC(=O)NC2=O)c1 [Example 288, 2-((2R,6S)-4-(2-(4-(3-(4-cyano-3-(trifluoromethyl)phenyl)-5,5-dimethyl-4-oxo-2-thioxoimidazolidin-1-yl)-2-cyclopropylphenoxy)ethyl)-2,6-dimethylpiperazin-1-yl)-N-(3-((R)-2,6-dioxopiperidin-3-ylamino)phenyl)acetamide] | * (0<Y<=25%) | < 100
CC(C)c1cc(N2C(=S)N(c3ccc(C#N)c(Cl)c3)C(=O)C2(C)C)ccc1OCCN1C[C@@H](C)N(CC(=O)Nc2cc(NC3CCC(=O)NC3=O)ccc2F)[C@@H](C)C1 (stereo partly drawn) [Example 222, 2-((2S,6R)-4-(2-(4-(3-(3-chloro-4-cyanophenyl)-5,5-dimethyl-4-oxo-2-thioxoimidazolidin-1-yl)-2-isopropylphenoxy)ethyl)-2,6-dimethylpiperazin-1-yl)-N-(5-(2,6-dioxopiperidin-3-ylamino)-2-fluorophenyl)acetamide] | * (0<Y<=25%) | 100 to 500
CC1(C)C(=O)N(c2cnc(C#N)c(C(F)(F)F)c2)C(=S)N1c1ccc(OCCN2CCN(CC(=O)Nc3cccc(NC4CCC(=O)NC4=O)c3)CC2)c(CCF)c1 (stereo not drawn) [Example 161, 2-(4-(2-(4-(3-(6-cyano-5-(trifluoromethyl)pyridin-3-yl)-5,5-dimethyl-4-oxo-2-thioxoimidazolidin-1-yl)-2-(2-fluoroethyl)phenoxy)ethyl)piperazin-1-yl)-N-(3-(2,6-dioxopiperidin-3-ylamino)phenyl)acetamide] | * (0<Y<=25%) | < 100
C[C@@H]1CN(CC(=O)Nc2cccc(NC3CCC(=O)NC3=O)c2)[C@H](C)CN1CCOc1ccc(N2C(=S)N(c3ccc(C#N)c(C(F)(F)F)c3)C(=O)C2(C)C)cc1C1CC1 (stereo partly drawn) [Example 203, 2-((2R,5R)-4-(2-(4-(3-(4-cyano-3-(trifluoromethyl)phenyl)-5,5-dimethyl-4-oxo-2-thioxoimidazolidin-1-yl)-2-cyclopropylphenoxy)ethyl)-2,5-dimethylpiperazin-1-yl)-N-(3-(2,6-dioxopiperidin-3-ylamino)phenyl)acetamide] | * (0<Y<=25%) | < 100
C[C@@H]1CN(CCOc2ccc(N3C(=S)N(c4cnc(C#N)c(C(F)(F)F)c4)C(=O)C3(C)C)cc2C(C)(F)F)C[C@H](C)N1CC(=O)Nc1cccc(NC2CCC(=O)NC2=O)c1 (stereo partly drawn) [Example 255, 2-((2S,6R)-4-(2-(4-(3-(6-cyano-5-(trifluoromethyl)pyridin-3-yl)-5,5-dimethyl-4-oxo-2-thioxoimidazolidin-1-yl)-2-(1,1-difluoroethyl)phenoxy)ethyl)-2,6-dimethylpiperazin-1-yl)-N-(3-(2,6-dioxopiperidin-3-ylamino)phenyl)acetamide] | * (0<Y<=25%) | < 100
CCc1cc(N2C(=S)N(c3ccc(C#N)c(C(F)(F)F)c3)C(=O)C2(C)C)ccc1OCCN1CCN(CC(=O)Nc2cccc(N[C@H]3CCC(=O)NC3=O)c2)CC1 [Example 27, hydrochloride] | * (0<Y<=25%) | < 100
CCc1cc(N2C(=S)N(c3ccc(C#N)c(C(F)(F)F)c3)C(=O)C2(C)C)ccc1OCCN1CCN([C@H](C)C(=O)Nc2cccc(NC3CCC(=O)NC3=O)c2)CC1 (stereo partly drawn) [Example 199, (2R)-2-(4-(2-(4-(3-(4-cyano-3-(trifluoromethyl)phenyl)-5,5-dimethyl-4-oxo-2-thioxoimidazolidin-1-yl)-2-ethylphenoxy)ethyl)piperazin-1-yl)-N-(3-(2,6-dioxopiperidin-3-ylamino)phenyl)propanamide] | ** (25%<Y<=35%) | < 100
CCc1cc(N2C(=S)N(c3cnc(C#N)c(C(F)(F)F)c3)C(=O)C23CCC3)ccc1OCCN1CCN(CC(=O)Nc2cccc(NC3CCC(=O)NC3=O)c2)C(C)(C)C1 (stereo not drawn) [Example 134, 2-(4-(2-(4-(7-(6-cyano-5-(trifluoromethyl)pyridin-3-yl)-8-oxo-6-thioxo-5,7-diazaspiro[3.4]octan-5-yl)-2-ethylphenoxy)ethyl)-2,2-dimethylpiperazin-1-yl)-N-(3-(2,6-dioxopiperidin-3-ylamino)phenyl)acetamide] | * (0<Y<=25%) | < 100
CCc1cc(N2C(=S)N(c3ccc(C#N)c(C(F)(F)F)c3)C(=O)C2(C)C)cnc1OCCN1CCN(CC(=O)Nc2cc(Cl)cc(NC3CCC(=O)NC3=O)c2)CC1 (stereo not drawn) [Example 69, N-(3-chloro-5-(2,6-dioxopiperidin-3-ylamino)phenyl)-2-(4-(2-(5-(3-(4-cyano-3-(trifluoromethyl)phenyl)-5,5-dimethyl-4-oxo-2-thioxoimidazolidin-1-yl)-3-ethylpyridin-2-yloxy)ethyl)piperazin-1-yl)acetamide] | * (0<Y<=25%) | < 100
CC(C)c1cc(N2C(=S)N(c3cnc(C#N)c(C(F)(F)F)c3)C(=O)C23CCC3)ccc1OCCN1C[C@@H](C)N(CC(=O)Nc2cc(Cl)cc(NC3CCC(=O)NC3=O)c2)[C@@H](C)C1 (stereo partly drawn) [Example 195, N-(3-chloro-5-(2,6-dioxopiperidin-3-ylamino)phenyl)-2-((2S,6R)-4-(2-(4-(7-(6-cyano-5-(trifluoromethyl)pyridin-3-yl)-8-oxo-6-thioxo-5,7-diazaspiro[3.4]octan-5-yl)-2-isopropylphenoxy)ethyl)-2,6-dimethylpiperazin-1-yl)acetamide] | * (0<Y<=25%) | < 100
CC(F)(F)c1cc(N2C(=S)N(c3cnc(C#N)c(C(F)(F)F)c3)C(=O)C2(C)C)ccc1OCCN1CCN(CC(=O)Nc2cc(Cl)cc(NC3CCC(=O)NC3=O)c2)CC1 (stereo not drawn) [Example 62, N-(3-chloro-5-(2,6-dioxopiperidin-3-ylamino)phenyl)-2-(4-(2-(4-(3-(6-cyano-5-(trifluoromethyl)pyridin-3-yl)-5,5-dimethyl-4-oxo-2-thioxoimidazolidin-1-yl)-2-(1,1-difluoroethyl)phenoxy)ethyl)piperazin-1-yl)acetamide] | * (0<Y<=25%) | < 100
